Results: patent US20230203029A1 (priority 2020, published 2023)
Where two headings read alike, the source gives them in different places.

Key:
[1] = molecular target: T1, human MERTK cytoplasmic domain (Homo sapiens, UniProt Q12866); assay: biochemical
T1 construct: human MERTK cytoplasmic domain (Carna Biosciences 08-108); purchased Carna Biosciences 08-108
Experimental: Assay 1a—MERTK HTRF KinEASE-TK Assay
The enzymatic reaction was carried out for 30 min at room temperature. 10 μL TK Antibody-Cryptate/Streptavidin-XL665 (Cisbio 610SAXLG) was then added for 60 min, including EDTA containing detection buffer (Cisbio 62SDBRDF) to stop the reaction.

[2] = molecular target: T2, Ba/F3 Pro B-cell line expressing BCR-human AXL kinase domain fusion protein (Homo sapiens, UniProt P30530); assay: Assay 5 Ba/F3 cell survival assay, BCR-Axl; assay type: cell-based; conditions: read-out: BCR-Axl Ba/F3 IC50, 48 h, CellTiter-Glo
T2 construct: P11274 (Breakpoint cluster region protein)
T2 sequence (P30530 536-807 limits assumed): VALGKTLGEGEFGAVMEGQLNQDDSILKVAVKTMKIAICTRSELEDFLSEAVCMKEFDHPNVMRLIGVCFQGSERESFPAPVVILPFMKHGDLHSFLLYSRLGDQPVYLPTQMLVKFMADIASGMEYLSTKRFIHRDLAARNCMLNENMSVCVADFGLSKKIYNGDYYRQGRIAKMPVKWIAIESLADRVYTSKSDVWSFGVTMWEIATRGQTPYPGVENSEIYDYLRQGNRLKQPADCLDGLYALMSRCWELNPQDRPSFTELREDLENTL
Experimental: Assay 5—Ba/F3 Cell Survival Assays.
The inhibitory potencies of compounds were assessed in a Ba/F3 cell survival assay, using the Ba/F3 Pro B-cell line, recombinantly expressing a BCR-human AXL kinase domain fusion protein (pACD320/AXL, Advanced Cellular Dynamics Inc), TEL-human MERTK fusion domain (pACD1000/MERTK, Advanced Cellular Dynamics Inc), TEL-human Tyro3 fusion domain (pACD1000/TYRO3, Advanced Cellular Dynamics Inc), or control TEL-none (ACD320, Advanced Cellular Dynamics Inc) BRC-none constructs (ACD1000, Advanced Cellular Dynamics Inc). 10 ng/mL recombinant murine IL3 (R&D, 403-ML-010) was included in the media when propagating negative control TEL-none or BCR-none lines only. […] The final assay DMSO concentration was 0.25%. Compound incubations were conducted for 48 h at 37° C./5% CO2, after which cell plate was equilibrated at room temperature for 20 minutes prior to assessing viability. 15 μl of Promega CellTiter-Glo reagent (G7572) was added to each well for 2 min on an orbital shaker to induce cell lysis.
The plate was then equilibrated for 5 min at room temperature and luminescence read on a BMG Pherastar FSX using the LUM plus optic module. […] Competition curves were then fit to a 4 parameter logistic equation including a variable slope factor to determine the IC50 (compound concentration causing a half-maximal inhibition of cell survival).

[3] = molecular target: T3, human AXL cytoplasmic domain (Homo sapiens, UniProt P30530); assay: Assay 1b AXL HTRF KinEASE-TK assay; assay type: biochemical
T3 construct: human AXL cytoplasmic domain (Thermo Fisher A31515); purchased Thermo Fisher A31515
T3 sequence (P30530 473-894 limits assumed): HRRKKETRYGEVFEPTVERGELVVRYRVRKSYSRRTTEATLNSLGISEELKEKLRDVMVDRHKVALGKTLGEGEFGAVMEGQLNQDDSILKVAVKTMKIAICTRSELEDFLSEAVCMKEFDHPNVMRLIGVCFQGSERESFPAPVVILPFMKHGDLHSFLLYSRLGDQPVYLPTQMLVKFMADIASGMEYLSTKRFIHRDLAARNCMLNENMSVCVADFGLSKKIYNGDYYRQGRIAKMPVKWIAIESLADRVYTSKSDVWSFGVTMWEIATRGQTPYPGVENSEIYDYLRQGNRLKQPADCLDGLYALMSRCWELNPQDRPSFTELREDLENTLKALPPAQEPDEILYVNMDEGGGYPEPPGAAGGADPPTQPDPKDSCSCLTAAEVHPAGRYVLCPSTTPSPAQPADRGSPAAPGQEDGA
Method in brief: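 Recombinant cytoplasmic domain (5 nM) in kinase buffer with 5 mM MgCl2, 1 mM MnCl2, 1 mM DTT, 50 nM SEB plus test compounds; reaction 30 min at room temperature. EDTA-containing detection with TK antibody-cryptate/streptavidin-XL665 for 60 min; HTRF 665/620 ratio read. IC50 from 4-parameter logistic fit with variable slope.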

[4] = molecular target: T4, Ba/F3 Pro B-cell line expressing TEL-human Tyro3 fusion domain (Homo sapiens, UniProt Q06418); assay type: cell-based; conditions: cell survival, 48 h, CellTiter-Glo
T4 sequence (Q06418 518-790 limits assumed): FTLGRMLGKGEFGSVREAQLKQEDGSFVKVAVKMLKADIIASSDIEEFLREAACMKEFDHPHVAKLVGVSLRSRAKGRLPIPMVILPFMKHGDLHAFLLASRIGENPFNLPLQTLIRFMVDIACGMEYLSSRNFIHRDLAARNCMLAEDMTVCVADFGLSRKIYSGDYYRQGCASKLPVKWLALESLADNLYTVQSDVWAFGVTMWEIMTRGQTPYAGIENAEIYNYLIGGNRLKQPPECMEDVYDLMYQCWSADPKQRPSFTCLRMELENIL

[5] = molecular target: T5, Ba/F3 Pro B-cell line expressing TEL-human MERTK fusion domain (Homo sapiens, UniProt Q12866); assay type: cell-based
T5 sequence (Q12866 587-858 limits assumed): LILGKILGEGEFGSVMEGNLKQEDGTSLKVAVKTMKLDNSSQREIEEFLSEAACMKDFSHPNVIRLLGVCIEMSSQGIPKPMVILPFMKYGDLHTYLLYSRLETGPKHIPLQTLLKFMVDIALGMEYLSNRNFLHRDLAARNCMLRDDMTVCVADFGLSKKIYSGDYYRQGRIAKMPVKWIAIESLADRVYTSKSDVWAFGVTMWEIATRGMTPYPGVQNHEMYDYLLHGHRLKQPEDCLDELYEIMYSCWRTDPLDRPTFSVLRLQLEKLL
Method in brief: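 Ba/F3 cells dependent on BCR-AXL or TEL-MERTK fusion kinase (IL3-free; IL3 only for control lines) treated with compound 48 h at 37 °C, 0.25% DMSO. Viability by CellTiter-Glo luminescence; IC50 for half-maximal inhibition of survival from 4-parameter variable-slope fit.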

[6] = 30 uM ATP, read-out: Assay 1a Mer IC50 30 uM ATP
[7] = cell survival, 48 h, CellTiter-Glo; read-out: TEL-MERTK Ba/F3 IC50

T1 sequence (Q12866 527-999): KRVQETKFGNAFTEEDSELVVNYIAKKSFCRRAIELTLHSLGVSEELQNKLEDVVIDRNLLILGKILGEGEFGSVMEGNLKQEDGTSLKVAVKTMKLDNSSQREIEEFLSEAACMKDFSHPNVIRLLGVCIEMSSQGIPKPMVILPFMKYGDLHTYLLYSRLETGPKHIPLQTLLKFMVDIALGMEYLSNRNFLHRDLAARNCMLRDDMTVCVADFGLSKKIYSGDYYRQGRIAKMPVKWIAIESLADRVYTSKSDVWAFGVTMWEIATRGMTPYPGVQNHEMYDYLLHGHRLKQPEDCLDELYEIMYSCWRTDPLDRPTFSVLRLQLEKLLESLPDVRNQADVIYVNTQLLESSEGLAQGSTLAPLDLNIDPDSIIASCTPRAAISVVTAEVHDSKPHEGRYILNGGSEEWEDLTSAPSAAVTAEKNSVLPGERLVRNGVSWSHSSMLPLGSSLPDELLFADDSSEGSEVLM

| Structure (SMILES) | IC50 [1, 6] [nM] | IC50 [2] [nM] | IC50 [3] [nM] | IC50 [4] [nM] | IC50 [5, 7] [nM] | IC50 [1] [nM] | IC50 ([5]; read-out: TEL-MERTK Ba/F3 IC50; cell survival, 48 h, CellTiter-Glo) [nM] | IC50 ([3]; # 1 μM ATP used in assay, read-out: Assay 1b Axl IC50) [nM] |
| --- | --- | --- | --- | --- | --- | --- | --- | --- |
| CC(C)n1cc(C(=O)Nc2ccc(Oc3ccnc4cnc(N5CCNCC5)cc34)cc2)c(=O)n(-c2ccc(F)cc2)c1=O [Example 12.5, 3-(4-fluorophenyl)-1-isopropyl-2,4-dioxo-N-[4-[(6-piperazin-1-yl-1,7-naphthyridin-4-yl)oxy]phenyl]pyrimidine-5-carboxamide] | 3 | 5 | 5 | 428 | 38 |  |  |  |
| Cc1cc(NC(=O)c2cccn(-c3ccccc3)c2=O)ccc1Oc1ccnc2cnc(C(=O)NC3CCN(C)CC3)cc12 [Example 34, 4-[2-Methyl-4-[(2-oxo-1-phenyl-pyridine-3-carbonyl)amino]phenoxy]-N-(1-methyl-4-piperidyl)-1,7-naphthyridine-6-carboxamide] | 43 | 73 | 296 | 128 | 144 |  |  |  |
| O=C(Nc1ccc(Oc2ccnc3cnc(C4CCNCC4)cc23)cn1)c1cccn(-c2ccc(F)cc2)c1=O [Example 21.1, 1-(4-fluorophenyl)-2-oxo-N-[5-[[6-(4-piperidyl)-1,7-naphthyridin-4-yl]oxy]-2-pyridyl]pyridine-3-carboxamide] | 9 | 46 | 46 | 861 | 35 |  |  |  |
| Cc1cc(NC(=O)c2cccn(-c3ccc(F)cc3)c2=O)ncc1Oc1ccnc2cnc(C(=O)NC3CCN(C)CC3)cc12 [Example 25, 4-[[6-[[1-(4-fluorophenyl)-2-oxo-pyridine-3-carbonyl]amino]-4-methyl-3-pyridyl]oxy]-N-(1-methyl-4-piperidyl)-1,7-naphthyridine-6-carboxamide] | 29 | 27 | 76 | 91 | 54 |  |  |  |
| CC(C)n1cc(C(=O)Nc2ccc(Oc3ccnc4cnc(C(=O)NC5CCN(C)CC5)cc34)cc2)c(=O)n(-c2cc(F)cc(F)c2)c1=O [Example 9.1, 4-[4-[[3-(3,5-difluorophenyl)-1-isopropyl-2,4-dioxo-pyrimidine-5-carbonyl]amino]phenoxy]-N-(1-methyl-4-piperidyl)-1,7-naphthyridine-6-carboxamide] | 12 | 25 | 13 | > 2500 | > 2500 |  |  |  |
| CN1CCC(NC(=O)c2cc3c(Oc4ccc(NC(=O)c5cccn(-c6ccc(F)cc6)c5=O)nc4)ccnc3cn2)CC1 [Example 11, 4-[[6-[[1-(4-fluorophenyl)-2-oxo-pyridine-3-carbonyl]amino]-3-pyridyl]oxy]-N-(1-methyl-4-piperidyl)-1,7-naphthyridine-6-carboxamide] | 4 | 32 | 77 | 251 | 52 |  |  |  |
| CN1CCC(c2cc3c(Oc4ccc(NC(=O)c5cccn(-c6ccc(F)cc6)c5=O)cc4)ccnc3cn2)CC1 [Example 17, 1-(4-fluorophenyl)-N-[4-[[6-(1-methyl-4-piperidyl)-1,7-naphthyridin-4-yl]oxy]phenyl]-2-oxo-pyridine-3-carboxamide] | 4 | 31 | 240 | 186 | 25 |  |  |  |
| CN1CCC(NC(=O)c2cc3c(Oc4ccc(NC(=O)c5cccn(-c6ccc(F)cc6)c5=O)cc4)ccnc3cn2)CC1 [Example 8.1, 4-[4-[[1-(4-fluorophenyl)-2-oxo-pyridine-3-carbonyl]amino]phenoxy]-N-(1-methyl-4-piperidyl)-1,7-naphthyridine-6-carboxamide] | 4 | 7 | 28 | 48 | 17 |  |  |  |
| Cc1nc(NC(=O)c2cccn(-c3ccc(F)cc3)c2=O)ccc1Oc1ccnc2cnc(C(=O)NC3CCN(C)CC3)cc12 [Example 26, 4-[[6-[[1-(4-fluorophenyl)-2-oxo-pyridine-3-carbonyl]amino]-2-methyl-3-pyridyl]oxy]-N-(1-methyl-4-piperidyl)-1,7-naphthyridine-6-carboxamide] | 19 | 83 | 360 | 1420 | 55 |  |  |  |
| CN1CCC(c2cc3c(Oc4ccc(NC(=O)c5cccn(-c6ccc(F)cc6)c5=O)nc4)ccnc3cn2)CC1 [Example 16, 1-(4-Fluorophenyl)-N-[5-[[6-(1-methyl-4-piperidyl)-1,7-naphthyridin-4-yl]oxy]-2-pyridyl]-2-oxo-pyridine-3-carboxamide] | 19 | 22 | 264 | 931 | 14 |  |  |  |
| CC(C)n1cc(C(=O)Nc2ccc(Oc3ccnc4cnc(N5CCN(C6COC6)CC5)cc34)cn2)c(=O)n(-c2ccc(F)cc2)c1=O [Example 20.1, 3-(4-fluorophenyl)-1-isopropyl-N-[5-[[6-[4-(oxetan-3-yl)piperazin-1-yl]-1,7-naphthyridin-4-yl]oxy]-2-pyridyl]-2,4-dioxo-pyrimidine-5-carboxamide] |  | 15 | 5 | 452 |  | 5 | 27 |  |
| CC(C)n1cc(C(=O)Nc2ccc(Oc3ccnc4cnc(C(=O)NC5CC6CCC(C5)N6C)cc34)cn2)c(=O)n(-c2ccc(F)cc2)c1=O (stereo not drawn) [Example 27.2, 4-[[6-[[3-(4-fluorophenyl)-1-isopropyl-2,4-dioxo-pyrimidine-5-carbonyl]amino]-3-pyridyl]oxy]-N-(8-methyl-8-azabicyclo[3.2.1]octan-3-yl)-1,7-naphthyridine-6-carboxamide] | 17 | 13 |  | 376 | 49 |  |  | 4 |
